According to patent US10669240B2, “5-substituted indazole-3-carboxamides and preparation and use thereof” (Samumed, LLC, priority 2014, dated 2020):

Experiments:
[1] = system: Wnt activity (Wnt-responsive SP5 promoter luciferase reporter in SW480 cells); experiment: Wnt activity reporter assay: SW480 cells with SP5 promoter-driven firefly luciferase; assay type: cell-based; details: Homo sapiens, 24 h after compound addition, read-out: Wnt inhibition
Text: The above synthesized compounds were screened using the assay procedure for Wnt activity described below.
Reporter cell lines were generated by stably transducing cells of cancer cell lines (e.g., colon cancer) with a lentiviral construct that include a Wnt-responsive promoter driving expression of the firefly luciferase gene.
Lentiviral constructs were made in which the SP5 promoter, a promoter having eight TCF/LEF binding sites derived from the SP5 promoter, was linked upstream of the firefly luciferase gene. The lentiviral constructs included a hygromycin resistance gene as a selectable marker. The SP5 promoter construct was used to transduce SW480 cells, a colon cancer cell line having a mutated APC gene that generates a truncated APC protein, leading to de-regulated accumulation of β-catenin.
Cultured SW480 cells bearing a reporter construct were distributed at approximately 10,000 cells per well into 384 well multiwell plates. Compounds were then added to the wells in half-log dilutions using a three micromolar top concentration. A series of control wells for each cell type received only buffer and compound solvent. Twenty-four hours after the addition of compound, reporter activity for luciferases was assayed, for example, by addition of the BrightGlo luminescence reagent (Promega) and the Victor3 plate reader (Perkin Elmer). Readings were normalized to DMSO only treated cells, and normalized activities were then used for the IC50 calculations.

[2] = target: DYRK1A (Homo sapiens (Human), UniProt Q13627); experiment: DYRK1A activity Tau assay: pSer396 Tau in SH-SY5Y cells by ELISA / western blot; assay type: cell-based; details: overnight (16-18 h) exposure

SMILES	IC50 [1]	EC50 [2]
CN(C(=O)c1n[nH]c2ccc(-c3cncc(CN4CCCCC4)c3)cc12)c1cccnc1 [Compound 76, N-Methyl-5-(5-(piperidin-1-ylmethyl)pyridin-3-yl)-N-(pyridin-3-yl)-1H-indazole-3-carboxamide]	6500 nM	990 nM
O=C(Nc1cccc2cccnc12)c1n[nH]c2ccc(-c3cncc(CN4CCCCC4)c3)cc12 [Compound 81, 5-(5-(Piperidin-1-ylmethyl)pyridin-3-yl)-N-(quinolin-8-yl)-1H-indazole-3-carboxamide]	7660 nM	312 nM
NC(=O)c1n[nH]c2ccc(-c3cncc(CN4CCCCC4)c3)cc12 [Compound 89, 5-(5-(Piperidin-1-ylmethyl)pyridin-3-yl)-1H-indazole-3-carboxamide]	1960 nM	6 nM
CN1CCC(NC(=O)c2n[nH]c3ccc(-c4cncc(C(F)(F)F)c4)cc23)CC1 [Compound 95, N-(1-Methylpiperidin-4-yl)-5-(5-(trifluoromethyl)pyridin-3-yl)-1H-indazole-3-carboxamide]	1070 nM	261 nM
O=C(Nc1cccnc1)c1n[nH]c2ccc(-c3cccc(F)c3F)cc12 [Compound 96, 5-(2,3-Difluorophenyl)-N-(pyridin-3-yl)-1H-indazole-3-carboxamide]	4670 nM	134 nM
O=C(NC1CCNCC1)c1n[nH]c2ccc(-c3cccc(F)c3F)cc12 [Compound 254, 5-(2,3-Difluorophenyl)-N-(piperidin-4-yl)-1H-indazole-3-carboxamide]	7900 nM	66 nM
CN1CCC(NC(=O)c2n[nH]c3ccc(-c4cc(CN5CCCCC5)cc(F)c4F)cc23)CC1 [Compound 272, 5-(2,3-Difluoro-5-(piperidin-1-ylmethyl)phenyl)-N-(1-methylpiperidin-4-yl)-1H-indazole-3-carboxamide]	1700 nM	15 nM
CC(C)(C)N1CCC(NC(=O)c2n[nH]c3ccc(-c4cccnc4)cc23)CC1 [Compound 291, N-(1-(tert-Butyl)piperidin-4-yl)-5-(pyridin-3-yl)-1H-indazole-3-carboxamide]	1010 nM	21 nM
CC(C)(C)CN1CCC(NC(=O)c2n[nH]c3ccc(-c4cccnc4)cc23)CC1 [Compound 329, N-(1-Neopentylpiperidin-4-yl)-5-(pyridin-3-yl)-1H-indazole-3-carboxamide]	4650 nM	7 nM
O=C(NC1CCN(CCF)CC1)c1n[nH]c2ccc(-c3cccc(F)c3F)cc12 [Compound 1160, 5-(2,3-Difluorophenyl)-N-(1-(2-fluoroethyl)piperidin-4-yl)-1H-indazole-3-carboxamide]	1100 nM	40 nM
O=C(NC1CCN(C2COC2)CC1)c1n[nH]c2ccc(-c3cccc(F)c3F)cc12 [Compound 1164, 5-(2,3-Difluorophenyl)-N-(1-(oxetan-3-yl)piperidin-4-yl)-1H-indazole-3-carboxamide]	1400 nM	49 nM
O=C(NCCN1CCCC1)c1n[nH]c2ccc(-c3cccc(F)c3F)cc12 [Compound 1166, 5-(2,3-Difluorophenyl)-N-(2-(pyrrolidin-1-yl)ethyl)-1H-indazole-3-carboxamide]	2400 nM	79 nM
CN(C)CCNC(=O)c1n[nH]c2ccc(-c3cccnc3)cc12 [Compound 1259, N-(2-(Dimethylamino)ethyl)-5-(pyridin-3-yl)-1H-indazole-3-carboxamide]	1800 nM	20 nM
CC(C)OCCCNC(=O)c1n[nH]c2ccc(-c3cccnc3)cc12 [Compound 1261, N-(3-Isopropoxypropyl)-5-(pyridin-3-yl)-1H-indazole-3-carboxamide]	1000 nM	5 nM
Cc1ccc(-c2ccc3[nH]nc(C(=O)NCCCOC(C)C)c3c2)cn1 [Compound 1262, N-(3-Isopropoxypropyl)-5-(6-methylpyridin-3-yl)-1H-indazole-3-carboxamide]	1800 nM	60 nM
CC(C)OCCCNC(=O)c1n[nH]c2ccc(-c3cccc(F)c3F)cc12 [Compound 1264, 5-(2,3-Difluorophenyl)-N-(3-isopropoxypropyl)-1H-indazole-3-carboxamide]	2100 nM	263 nM
O=C(NCCN1CCCCC1)c1n[nH]c2ccc(-c3cccnc3)cc12 [Compound 1265, N-(2-(Piperidin-1-yl)ethyl)-5-(pyridin-3-yl)-1H-indazole-3-carboxamide]	1200 nM	17 nM

SMILES	IC50 [1]	EC50 [2]
O=C(NCCN1CCOCC1)c1n[nH]c2ccc(-c3cccnc3)cc12 [Compound 1267, N-(2-Morpholinoethyl)-5-(pyridin-3-yl)-1H-indazole-3-carboxamide]	1500 nM	5 nM
CN1CC(NC(=O)c2n[nH]c3ccc(-c4cccc(F)c4F)cc23)C1 [Compound 1272, 5-(2,3-Difluorophenyl)-N-(1-methylazetidin-3-yl)-1H-indazole-3-carboxamide]	2200 nM	56 nM
CC(C)CN1CC(NC(=O)c2n[nH]c3ccc(-c4cncc(Cl)c4)cc23)C1 [Compound 1273, 5-(5-Chloropyridin-3-yl)-N-(1-isobutylazetidin-3-yl)-1H-indazole-3-carboxamide]	3300 nM	23 nM
CC(C)CN1CC(NC(=O)c2n[nH]c3ccc(-c4cncc(C(F)F)c4)cc23)C1 [Compound 1274, 5-(5-(Difluoromethyl)pyridin-3-yl)-N-(1-isobutylazetidin-3-yl)-1H-indazole-3-carboxamide]	1200 nM	20 nM
CC(C)CN1CC(NC(=O)c2n[nH]c3ccc(-c4cncc(F)c4)cc23)C1 [Compound 1275, 5-(5-Fluoropyridin-3-yl)-N-(1-isobutylazetidin-3-yl)-1H-indazole-3-carboxamide]	2700 nM	28 nM
CN1CCC2(CC1)CC(NC(=O)c1n[nH]c3ccc(-c4cncc(Cl)c4)cc13)C2 [Compound 1276, 5-(5-Chloropyridin-3-yl)-N-(7-methyl-7-azaspiro[3.5]nonan-2-yl)-1H-indazole-3-carboxamide]	5200 nM	7 nM
CN1CCC2(CC1)CC(NC(=O)c1n[nH]c3ccc(-c4cccc(F)c4F)cc13)C2 [Compound 1278, 5-(2,3-Difluorophenyl)-N-(7-methyl-7-azaspiro[3.5]nonan-2-yl)-1H-indazole-3-carboxamide]	5500 nM	14 nM
O=C(NC1CCC(F)(F)CC1)c1n[nH]c2ccc(-c3cccnc3)cc12 [Compound 1283, N-(4,4-Difluorocyclohexyl)-5-(pyridin-3-yl)-1H-indazole-3-carboxamide]	1300 nM	2 nM
N[C@H]1CC[C@@H](NC(=O)c2n[nH]c3ccc(-c4cccnc4)cc23)CC1 [Compound 1285, N-((1s,4s)-4-Aminocyclohexyl)-5-(pyridin-3-yl)-1H-indazole-3-carboxamide]	> 10000 nM	35 nM
N[C@H]1CC[C@H](NC(=O)c2n[nH]c3ccc(-c4cccnc4)cc23)CC1 [Compound 1286, N-((1r,4r)-4-Aminocyclohexyl)-5-(pyridin-3-yl)-1H-indazole-3-carboxamide]	3700 nM	2 nM
CN(C)[C@H]1CC[C@@H](NC(=O)c2n[nH]c3ccc(-c4cccnc4)cc23)CC1 [Compound 1287, N-((1s,4s)-4-(Dimethylamino)cyclohexyl)-5-(pyridin-3-yl)-1H-indazole-3-carboxamide]	> 10000 nM	37 nM
CN(C)[C@H]1CC[C@H](NC(=O)c2n[nH]c3ccc(-c4cccnc4)cc23)CC1 [Compound 1288, N-((1r,4r)-4-(Dimethylamino)cyclohexyl)-5-(pyridin-3-yl)-1H-indazole-3-carboxamide]	1370 nM	1 nM
CCN1CCC(NC(=O)c2n[nH]c3cc(F)c(-c4cncc5ccccc45)cc23)CC1 [Compound 1293, N-(1-Ethylpiperidin-4-yl)-6-fluoro-5-(isoquinolin-4-yl)-1H-indazole-3-carboxamide]	2130 nM	210 nM
O=C(NC1CCN(CCF)CC1)c1n[nH]c2ccc(-c3cncc4ccccc34)cc12 [Compound 1297, N-(1-(2-Fluoroethyl)piperidin-4-yl)-5-(isoquinolin-4-yl)-1H-indazole-3-carboxamide]	2200 nM	30 nM
O=C(NC1CCN(CC(F)F)CC1)c1n[nH]c2ccc(-c3cncc(F)c3)cc12 [Compound 1298, N-(1-(2,2-Difluoroethyl)piperidin-4-yl)-5-(5-fluoropyridin-3-yl)-1H-indazole-3-carboxamide]	1200 nM	28 nM
CC(C)(F)CN1CCC(NC(=O)c2n[nH]c3ccc(-c4cccnc4)cc23)CC1 [Compound 1309, N-(1-(2-Fluoro-2-methylpropyl)piperidin-4-yl)-5-(pyridin-3-yl)-1H-indazole-3-carboxamide]	2260 nM	7 nM
O=C(NC1CCN(CC2CC2)CC1)c1n[nH]c2ccc(-c3cncc(Cl)c3)cc12 [Compound 1313, 5-(5-Chloropyridin-3-yl)-N-(1-(cyclopropylmethyl)piperidin-4-yl)-1H-indazole-3-carboxamide]	1800 nM	33 nM
